Test results published in ChEMBL document CHEMBL1201862, “PubChem BioAssay data set” (2004).
Active and inactive are the calls of the source.

Key:
Vero = assay: Vero cell viability after compound exposure – synthesized analogs, set II, cytotoxicity control for West Nile virus antiviral project, SAR follow-up (AID 2402); assay type: functional; conditions: Chlorocebus sabaeus
[1] = A Cell Based Assay for the Identification of Probe candidate Compounds with Anti- Venezuelan Equine Encephalitis virus. [Related pubchem assays: 2409, 2419, 1621, 2238, 2405, 2024, 2065, 2402, 2414, 1635, 1650, 2244 ]; assay type: functional
Kallikrein-7 = Kallikrein-7 (Homo sapiens, UniProt P49862); assay: Fluorescence Intensity-based biochemical primary high throughput dose response assay to identify activators of kallikrein-7 (K7) zymogen.
HEK293 = assay: Fluorescence-based counterscreen for potentiators or agonists of NPY-Y2: cell-based high-throughput dose response assay to identify inhibitors of cyclic nucleotide gated ion channel (CNGC) activity. In this assay, the parental HEK293 cell line transfected with a cyclic-nucleotide gated ion channel (CNGC)-based cAMP sensor is used to measure inhibition of isoproterenol-induced CNGC activity by test compound.; assay type: functional; conditions: Homo sapiens;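 also: stimulus is 1 µM isoproterenol at EC100 plus PDE inhibitor Ro 20-1724 at 25 µM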
[2] = NIH3T3 cell viability loss – ATP luminescence, mouse fibroblasts, counter-screen, dose response (AID 2010); assay type: functional, cell-based;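 also: cells exposed to compound for about 90 hours before reading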
[3] = target: Neuropeptide Y receptor type 2 (Homo sapiens, UniProt P49146); assay: Fluorescence-based cell-based high-throughput dose response assay for agonists of NPY-Y2. [Related pubchem assays: 1703 (Screening assay (CNGC inhibitors).), 1359 (Screening assay (NPY-Y2 potentiators or agonists).), 1304 (Screening assay (NPY-Y1 potentiators or agonists).), 1710 (Screening assay (NPY-Y2 agonists).), 1791 (Summary AID.)]; assay type: functional
[4] = Trypanosoma cruzi growth suppression in host cells – NIH3T3 host cells, beta-gal luminescence, confirmation (AID 2044); assay type: functional, cell-based;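 also: intracellular parasites grown in NIH/3T3 mouse fibroblasts as host cells; luminescent beta-galactosidase reporter signal from transgenic T. cruzi replicating inside host cells; inhibitors lower the luminescence signal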
[5] = target: Neuropeptide Y receptor type 1 (Homo sapiens, UniProt P25929); assay: Fluorescence-based counterscreen for agonists of NPY-Y2: cell-based high-throughput dose response assay for agonists of NPY-Y1.; assay type: functional
[6] = target: Glyceraldehyde-3-phosphate dehydrogenase (Homo sapiens, UniProt P04406)
[7] = target: T1, Dual specificity protein phosphatase 6 (Rattus norvegicus, UniProt Q64346); assay type: functional
T1 sequence (Q64346 whole entry): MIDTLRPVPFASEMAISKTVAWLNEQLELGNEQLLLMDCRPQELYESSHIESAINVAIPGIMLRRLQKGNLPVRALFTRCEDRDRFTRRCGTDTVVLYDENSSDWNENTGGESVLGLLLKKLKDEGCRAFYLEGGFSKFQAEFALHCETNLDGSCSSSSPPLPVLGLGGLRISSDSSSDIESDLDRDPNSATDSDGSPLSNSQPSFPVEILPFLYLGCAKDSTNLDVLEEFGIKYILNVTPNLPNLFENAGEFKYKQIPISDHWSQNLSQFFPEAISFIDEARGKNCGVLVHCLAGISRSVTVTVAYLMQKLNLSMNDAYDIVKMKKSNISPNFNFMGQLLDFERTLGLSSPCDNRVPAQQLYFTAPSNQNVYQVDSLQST

[8] = target: T2, Tyrosine-protein phosphatase non-receptor type 7 (Homo sapiens, UniProt P35236); assay type: functional
T2 sequence (P35236 whole entry): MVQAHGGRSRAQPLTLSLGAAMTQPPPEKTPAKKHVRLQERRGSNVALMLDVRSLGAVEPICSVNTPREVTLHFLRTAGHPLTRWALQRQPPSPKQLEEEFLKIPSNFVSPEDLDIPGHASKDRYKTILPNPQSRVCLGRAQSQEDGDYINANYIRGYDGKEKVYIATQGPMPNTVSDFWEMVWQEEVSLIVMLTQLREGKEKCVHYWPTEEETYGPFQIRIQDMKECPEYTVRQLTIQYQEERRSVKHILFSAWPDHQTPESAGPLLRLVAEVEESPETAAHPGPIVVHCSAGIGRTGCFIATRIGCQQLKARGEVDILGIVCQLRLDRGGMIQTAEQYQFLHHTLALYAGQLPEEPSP

[9] = target: T1, Dual specificity protein phosphatase 6
[10] = target: T3, Heat shock 70 kDa protein 1A (Homo sapiens, UniProt P0DMV8); assay: inhibition of Hsp70 binding activity – biochemical, fluorescence polarization, SAR follow-up (AID 1072)
[11] = target: Heat shock cognate 71 kDa protein (Homo sapiens, UniProt P11142); assay: In Vitro Hsc70 Dose Response Fluorescence Polarization Assay. [Related pubchem assays: 1072 ]
[12] = target: Mothers against decapentaplegic homolog 3 (Homo sapiens, UniProt P84022); assay: blockers of Smad3 complex formation in lysate – cell lysate, secondary confirmation, chemiluminescent ELISA, HEK293 lysate, dose response (AID 1058); assay type: functional
[13] = target: T3, Heat shock 70 kDa protein 1A; assay: small molecules displacing fluorescent ligand from Hsp70 – biochemical, fluorescence polarization, primary screen (AID 583)
[14] = target: T3, Heat shock 70 kDa protein 1A; assay: small-molecule inhibition of Hsp70 – biochemical, TR-FRET (AID 786)
Procathepsin L = Procathepsin L (Homo sapiens, UniProt P07711)
Aspartyl aminopeptidase = Aspartyl aminopeptidase (Plasmodium falciparum 3D7, UniProt Q8I2J3)
Estrogen receptor = target: T4, Estrogen receptor (Homo sapiens, UniProt P03372); assay: blockers of SRC-3 recruitment to ERα – biochemical, ELISA, streptavidin-HRP readout, orthogonal assay, confirmation (AID 1079)
T4 sequence (P03372 whole entry): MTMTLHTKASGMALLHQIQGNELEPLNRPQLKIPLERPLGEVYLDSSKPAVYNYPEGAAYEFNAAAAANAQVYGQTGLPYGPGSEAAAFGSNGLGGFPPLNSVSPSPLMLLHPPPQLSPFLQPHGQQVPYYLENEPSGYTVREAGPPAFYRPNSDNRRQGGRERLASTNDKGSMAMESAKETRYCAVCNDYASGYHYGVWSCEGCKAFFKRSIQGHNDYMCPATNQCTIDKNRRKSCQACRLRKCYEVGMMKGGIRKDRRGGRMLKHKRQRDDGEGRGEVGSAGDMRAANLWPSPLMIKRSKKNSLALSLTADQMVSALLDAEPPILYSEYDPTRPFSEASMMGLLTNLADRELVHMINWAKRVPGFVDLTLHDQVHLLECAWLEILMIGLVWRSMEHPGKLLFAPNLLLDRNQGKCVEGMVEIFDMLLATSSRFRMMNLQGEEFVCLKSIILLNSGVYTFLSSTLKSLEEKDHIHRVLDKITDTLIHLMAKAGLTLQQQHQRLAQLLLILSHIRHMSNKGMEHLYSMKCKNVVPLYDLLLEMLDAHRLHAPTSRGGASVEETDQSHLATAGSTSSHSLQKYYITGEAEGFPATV

Exodeoxyribonuclease V = Exodeoxyribonuclease V (Escherichia coli (strain K12), UniProt P04993+P07648+P08394); assay: RecBCD inhibition via phage-restricted bacterial growth – absorbance, V66 E. coli, mutant T4 phage, counter-screen for AddAB inhibitor project, dose response (AID 492957); assay type: functional, cell-based, Escherichia coli str. K-12 substr. MG1655
[15] = viability loss in CEM21 cells – cell-based, CellTiter-Glo luminescence, cherry-picked, cytotoxicity control for viral fusion inhibitor project, dose response (AID 652042); assay type: functional;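 also: potency for signal decrease meaning cytotoxicity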
[16] = HIV-1 AD8 envelope cell-cell fusion blockers – cherry-pick, dose response (AID 652062); assay type: functional, cell-based;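 also: luciferase signal from cell-cell fusion driven by HIV-1 clade B AD8 Env; potency is for inhibitors of fusion seen as a drop in luminescence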
INS1 = assay: INS-1E survival protection against cytokine death – cell-based, luminescence, retest, dose response (AID 449756); assay type: functional; conditions: Rattus norvegicus;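 also: cell death triggered by IL-1 beta plus TNF-alpha plus IFN-gamma mixture; protective hits raise ATP signal compared with cytokine alone wells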
[17] = blockers of HIV-1 ZM109 envelope-driven cell-cell fusion – HeLa effector, CEM target cells, luciferase, cherry-pick, dose response (AID 652058); assay type: functional, cell-based;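 also: luciferase signal from HIV-1 Env mediated cell-cell fusion of effector and target cells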
[18] = Luminescence-based counterscreen assay for KLF5 inhibitors: dose response cell-based high throughput screening assay to identify cytotoxic compounds using the IEC-6 intestinal epithelial cell line. [Related pubchem assays: 1700 (Primary screen.), 1834 (Confirmation screen.), 1858 (Summary AID.), 1905 (Counterscreen.)]; assay type: functional
[19] = blockers of HIV-1 envelope-mediated cell-cell fusion – cherry-pick, dose response (AID 652057); assay type: functional, cell-based
[20] = target: Heat shock protein HSP 90-alpha (Homo sapiens, UniProt P07900); assay type: functional, organism-based
[21] = Counterscreen for AddAB inhibitors: absorbance-based bacterial cell-based high throughput dose response assay for inhibitors of bacterial viability. [Related pubchem assays (depositor defined):AID435030, AID449728, AID449731, AID488942, AID488955, AID488956]; assay type: functional
[22] = off-target signal loss in HeLa-CEM21 co-culture – HeLa F-luc CTL cells, cherry-picked, counter-screen for HIV-1 Env fusion inhibitor project, dose response (AID 652040); assay type: functional, cell-based;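 also: potency for signal decrease marking cytotoxic or nonspecific inhibition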
[23] = Luminescence Cell-Based Dose Retest to Confirm Inhibitors of Cancer Stem Cells. [Related pubchem assays (depositor defined):AID2717, AID2721]; assay type: functional; conditions: Homo sapiens
Cytochrome P450 2C9 = Cytochrome P450 2C9 (Homo sapiens, UniProt P11712); conditions: Potency
Oxytocin receptor = Oxytocin receptor (Homo sapiens, UniProt P30559); assay: Fluorescence-based cell-based high throughput dose response assay for agonists of the Oxytocin Receptor (OXTR). [Related pubchem assays: 2435 (Primary screen (OXTR agonists in singlicate)), 434991 (Counterscreen (V1R agonists in triplicate)), 2482 (Summary (OXTR agonists)), 434963 (Confirmation screen (OXTR agonists in triplicate))]; assay type: functional
Vasopressin V1a receptor = Vasopressin V1a receptor (Homo sapiens, UniProt P37288); assay: Counterscreen for Oxytocin Receptor (OXTR) agonists: Fluorescence-based cell-based high throughput dose response assay to identify agonists of the vasopressin 1 receptor (V1R). [Related pubchem assays: 2435 (Primary screen (OXTR agonists in singlicate)), 434991 (Counterscreen (V1R agonists in triplicate)), 2482 (Summary (OXTR agonists)) …; assay type: functional
Cytochrome P450 2C19 = Cytochrome P450 2C19 (Homo sapiens, UniProt P33261); assay: qHTS Assay for Inhibitors and Substrates of Cytochrome P450 2C19. [Related pubchem assays: 410 ]; assay type: ADME; conditions: read-out: Potency
Cytochrome P450 2D6 = Cytochrome P450 2D6 (Homo sapiens, UniProt P10635); assay: qHTS Assay for Inhibitors and Substrates of Cytochrome P450 2D6. [Related pubchem assays: 410 ]; assay type: ADME; conditions: read-out: Potency

T3 sequence (P0DMV8 whole entry): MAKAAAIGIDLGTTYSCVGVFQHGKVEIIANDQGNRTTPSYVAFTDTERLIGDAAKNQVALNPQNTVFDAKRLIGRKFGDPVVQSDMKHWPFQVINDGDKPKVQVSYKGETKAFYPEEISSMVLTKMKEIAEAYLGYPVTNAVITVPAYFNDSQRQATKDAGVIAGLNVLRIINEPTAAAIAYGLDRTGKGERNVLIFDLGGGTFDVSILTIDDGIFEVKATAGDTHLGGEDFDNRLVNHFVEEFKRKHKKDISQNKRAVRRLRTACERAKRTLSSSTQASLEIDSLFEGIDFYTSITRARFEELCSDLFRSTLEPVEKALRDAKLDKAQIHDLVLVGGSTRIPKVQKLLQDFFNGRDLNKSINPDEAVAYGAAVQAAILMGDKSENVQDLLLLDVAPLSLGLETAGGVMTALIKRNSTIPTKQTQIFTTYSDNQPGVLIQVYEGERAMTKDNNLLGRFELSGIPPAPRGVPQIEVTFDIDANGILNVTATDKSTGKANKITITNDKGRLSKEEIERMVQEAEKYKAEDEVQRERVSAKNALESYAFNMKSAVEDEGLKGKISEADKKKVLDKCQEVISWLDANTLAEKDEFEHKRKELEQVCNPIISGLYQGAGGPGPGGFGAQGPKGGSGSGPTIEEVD
Chain of Cytochrome P450 2C19 (P33261 whole entry): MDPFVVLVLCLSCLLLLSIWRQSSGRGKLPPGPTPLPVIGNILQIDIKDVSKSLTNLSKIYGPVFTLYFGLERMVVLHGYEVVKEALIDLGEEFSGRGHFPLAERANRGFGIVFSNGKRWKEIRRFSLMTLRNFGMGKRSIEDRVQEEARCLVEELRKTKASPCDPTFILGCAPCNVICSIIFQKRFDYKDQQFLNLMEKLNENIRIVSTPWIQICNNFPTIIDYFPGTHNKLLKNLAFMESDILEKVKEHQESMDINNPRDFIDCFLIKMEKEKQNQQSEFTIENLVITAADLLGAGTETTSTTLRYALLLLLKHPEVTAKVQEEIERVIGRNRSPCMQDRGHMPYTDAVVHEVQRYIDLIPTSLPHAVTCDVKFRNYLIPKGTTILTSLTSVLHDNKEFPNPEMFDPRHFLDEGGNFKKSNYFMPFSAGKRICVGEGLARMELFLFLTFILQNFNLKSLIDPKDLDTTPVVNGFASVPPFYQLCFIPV
Chain of Procathepsin L (P07711 whole entry): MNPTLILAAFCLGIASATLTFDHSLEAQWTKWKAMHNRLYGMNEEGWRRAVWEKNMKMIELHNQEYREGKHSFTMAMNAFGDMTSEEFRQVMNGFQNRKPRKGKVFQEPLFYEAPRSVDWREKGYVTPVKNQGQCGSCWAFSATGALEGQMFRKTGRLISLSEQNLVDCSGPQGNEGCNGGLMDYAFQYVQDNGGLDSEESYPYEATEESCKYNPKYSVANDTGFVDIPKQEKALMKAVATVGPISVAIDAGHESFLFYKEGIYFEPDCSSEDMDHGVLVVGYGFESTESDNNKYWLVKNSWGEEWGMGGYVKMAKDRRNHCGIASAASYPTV
Chain of Glyceraldehyde-3-phosphate dehydrogenase (P04406 whole entry): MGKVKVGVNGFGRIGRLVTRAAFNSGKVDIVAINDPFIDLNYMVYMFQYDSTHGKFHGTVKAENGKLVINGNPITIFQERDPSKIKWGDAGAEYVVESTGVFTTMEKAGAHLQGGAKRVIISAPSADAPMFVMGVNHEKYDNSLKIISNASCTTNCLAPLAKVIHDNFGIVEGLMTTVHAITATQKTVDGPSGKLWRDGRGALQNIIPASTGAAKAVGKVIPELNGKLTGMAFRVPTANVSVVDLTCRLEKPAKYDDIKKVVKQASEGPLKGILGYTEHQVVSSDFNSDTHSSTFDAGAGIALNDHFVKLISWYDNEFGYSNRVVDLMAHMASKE
Chain of Vasopressin V1a receptor (P37288 whole entry): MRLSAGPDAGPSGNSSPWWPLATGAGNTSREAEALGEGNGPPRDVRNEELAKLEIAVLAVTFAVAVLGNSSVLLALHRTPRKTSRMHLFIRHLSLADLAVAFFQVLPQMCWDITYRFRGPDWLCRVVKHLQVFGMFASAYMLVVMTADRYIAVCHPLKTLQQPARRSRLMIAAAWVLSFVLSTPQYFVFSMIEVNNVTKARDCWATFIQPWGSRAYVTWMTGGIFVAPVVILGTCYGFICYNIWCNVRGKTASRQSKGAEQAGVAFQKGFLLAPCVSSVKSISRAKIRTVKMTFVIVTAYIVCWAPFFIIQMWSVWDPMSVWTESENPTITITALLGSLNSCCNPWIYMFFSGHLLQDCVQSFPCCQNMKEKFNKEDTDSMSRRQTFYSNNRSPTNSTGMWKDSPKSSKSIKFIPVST
Chain of Kallikrein-7 (P49862 whole entry): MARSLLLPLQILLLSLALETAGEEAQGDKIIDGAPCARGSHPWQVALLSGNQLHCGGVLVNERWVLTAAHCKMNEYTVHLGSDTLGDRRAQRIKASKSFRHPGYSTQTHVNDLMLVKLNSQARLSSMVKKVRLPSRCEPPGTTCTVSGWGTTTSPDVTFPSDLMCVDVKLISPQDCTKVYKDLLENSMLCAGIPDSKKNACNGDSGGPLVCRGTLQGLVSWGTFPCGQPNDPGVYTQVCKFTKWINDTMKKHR
Chain of Mothers against decapentaplegic homolog 3 (P84022 whole entry): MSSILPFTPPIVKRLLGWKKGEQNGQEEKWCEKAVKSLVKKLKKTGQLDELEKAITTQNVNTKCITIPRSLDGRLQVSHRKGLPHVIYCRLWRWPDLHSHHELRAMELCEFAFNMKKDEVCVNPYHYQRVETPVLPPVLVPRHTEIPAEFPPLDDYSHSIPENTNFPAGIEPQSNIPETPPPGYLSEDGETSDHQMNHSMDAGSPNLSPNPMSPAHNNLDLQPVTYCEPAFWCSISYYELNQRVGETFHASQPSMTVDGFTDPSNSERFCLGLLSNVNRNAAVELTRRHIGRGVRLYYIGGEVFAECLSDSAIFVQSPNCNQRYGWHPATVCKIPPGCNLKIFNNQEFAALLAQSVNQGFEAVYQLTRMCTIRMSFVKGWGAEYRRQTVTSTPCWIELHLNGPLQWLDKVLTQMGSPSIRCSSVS
Chain of Oxytocin receptor (P30559 whole entry): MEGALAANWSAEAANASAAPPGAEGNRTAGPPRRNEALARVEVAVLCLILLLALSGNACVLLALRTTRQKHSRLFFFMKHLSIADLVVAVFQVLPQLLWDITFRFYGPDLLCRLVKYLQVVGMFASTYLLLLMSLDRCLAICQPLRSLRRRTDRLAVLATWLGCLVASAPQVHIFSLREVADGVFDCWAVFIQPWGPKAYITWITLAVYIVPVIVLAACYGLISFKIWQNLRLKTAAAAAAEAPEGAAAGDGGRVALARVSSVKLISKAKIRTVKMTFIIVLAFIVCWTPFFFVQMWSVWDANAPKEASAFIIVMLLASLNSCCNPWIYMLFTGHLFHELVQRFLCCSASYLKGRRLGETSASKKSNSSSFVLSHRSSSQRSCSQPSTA
Chain of Neuropeptide Y receptor type 1 (P25929 whole entry): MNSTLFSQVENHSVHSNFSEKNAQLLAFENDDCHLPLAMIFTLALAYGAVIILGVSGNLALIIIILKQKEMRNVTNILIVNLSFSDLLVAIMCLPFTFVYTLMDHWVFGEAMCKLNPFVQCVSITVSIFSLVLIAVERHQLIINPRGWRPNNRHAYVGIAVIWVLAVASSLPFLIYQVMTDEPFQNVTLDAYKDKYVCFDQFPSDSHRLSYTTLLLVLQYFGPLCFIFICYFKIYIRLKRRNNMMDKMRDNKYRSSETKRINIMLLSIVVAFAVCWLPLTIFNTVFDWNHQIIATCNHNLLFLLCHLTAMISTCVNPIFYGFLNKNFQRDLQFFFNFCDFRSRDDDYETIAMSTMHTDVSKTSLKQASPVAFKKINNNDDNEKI
Chain of Heat shock cognate 71 kDa protein (P11142 whole entry): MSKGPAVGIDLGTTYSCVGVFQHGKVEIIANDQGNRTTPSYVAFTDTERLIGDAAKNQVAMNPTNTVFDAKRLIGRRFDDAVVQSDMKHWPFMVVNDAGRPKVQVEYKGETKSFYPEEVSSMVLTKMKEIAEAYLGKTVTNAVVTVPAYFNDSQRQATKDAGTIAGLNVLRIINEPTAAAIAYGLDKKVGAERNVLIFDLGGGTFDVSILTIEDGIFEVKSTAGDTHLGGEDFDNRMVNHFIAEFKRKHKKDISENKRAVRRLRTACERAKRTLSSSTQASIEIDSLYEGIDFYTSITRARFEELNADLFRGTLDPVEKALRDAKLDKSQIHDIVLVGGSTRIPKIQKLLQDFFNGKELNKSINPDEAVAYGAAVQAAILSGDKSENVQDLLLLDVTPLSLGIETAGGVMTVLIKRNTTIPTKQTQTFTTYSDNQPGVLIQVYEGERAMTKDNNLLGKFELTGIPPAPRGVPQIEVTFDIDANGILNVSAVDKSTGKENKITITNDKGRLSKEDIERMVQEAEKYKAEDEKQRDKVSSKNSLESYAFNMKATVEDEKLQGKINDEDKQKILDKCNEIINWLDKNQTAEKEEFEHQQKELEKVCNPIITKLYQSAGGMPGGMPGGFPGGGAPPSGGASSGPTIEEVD
Chain of Neuropeptide Y receptor type 2 (P49146 whole entry): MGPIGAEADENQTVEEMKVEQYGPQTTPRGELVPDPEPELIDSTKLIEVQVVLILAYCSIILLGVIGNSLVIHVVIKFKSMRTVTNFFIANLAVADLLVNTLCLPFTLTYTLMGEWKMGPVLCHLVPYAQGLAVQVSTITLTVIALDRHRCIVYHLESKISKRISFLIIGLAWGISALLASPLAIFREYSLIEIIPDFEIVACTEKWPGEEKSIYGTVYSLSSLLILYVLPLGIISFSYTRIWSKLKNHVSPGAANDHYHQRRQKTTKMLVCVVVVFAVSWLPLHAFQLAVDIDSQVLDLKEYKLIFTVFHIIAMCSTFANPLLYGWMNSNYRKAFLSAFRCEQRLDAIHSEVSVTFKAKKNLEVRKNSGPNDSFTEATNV

SMILES: OC1c2cc(Cl)cc(Cl)c2N=C2CCCN21 (stereo unspecified)
- CC50 (Vero): > 200 µM (active)
- IC50 [1]: < 0.26 µM (active)
- EC50 (Kallikrein-7): 48.5 µM (inactive)

SMILES: Nc1c(-c2ccccc2)c(CSc2nc3ccccc3[nH]2)nn1-c1ccc(Cl)cc1
- EC50 (HEK293): > 35.4 µM (not active)
- EC50 [2]: 12.2 µM (active)
- EC50 [3]: 6.65 µM (active)
- EC50 [4]: 0.595 µM (active)
- EC50 [5]: 7.41 µM (active)

SMILES: NC(=O)c1cccc2c1NC(C(=O)O)C1CC=CC21 (stereo unspecified)
- IC50 [6]: > 100 µM (not active)
- IC50 [7]: 55.5 µM (active)
- IC50 [8]: 3 µM (active)
- IC50 [9]: 58.6 µM (active)
- IC50 [10]: 10.4 µM (active)
- IC50 [11]: 86 µM (active)

SMILES: COc1cc(OC)c(C(c2cc3c(cc2O)OCO3)N2CCOCC2)c(OC)c1 (stereo unspecified)
- IC50 [12]: > 40 µM (not active)

SMILES: CC(=O)Nc1cc2c(cc1C(C)=O)OCCO2
- IC50 [13]: > 100 µM (not active)
- IC50 [14]: > 100 µM (not active)

SMILES: O=C(Nc1cccc([N+](=O)[O-])c1)Nn1cnnc1
- IC50 (Procathepsin L): > 59.6 µM (not active)
- IC50 (Aspartyl aminopeptidase): 0.93 µM (active)

SMILES: O=C(CCCCCn1c(=S)[nH]c2ccccc2c1=O)N1CCC(N(Cc2ccccc2)c2ccccc2)CC1
- IC50 (Estrogen receptor): 0.12 µM (not active)

SMILES: COc1cccc(/C=N/Nc2ncc(C(F)(F)F)cc2Cl)c1O
- IC50 (Exodeoxyribonuclease V): > 119 µM (inactive)
- AC50 [15]: 2.15 µM (active)
- AC50 [16]: 7.04 µM (active)
- AC50 (INS1): 0.584 µM (active)
- AC50 [17]: 1.45 µM (active)
- IC50 [18]: 26.8 µM (not active)
- AC50 [19]: 1.37 µM (active)
- AC50 [20]: 5.59 µM (active)
- IC50 [21]: 98.2 µM (inactive)
- AC50 [22]: 17.4 µM (active)
- AC50 [23]: 0.469 µM (active)

SMILES: CC[C@H]1C(=O)OC[C@@H]1Cc1cncn1C
- AC50 (Cytochrome P450 2C9): 12.6 µM (inconclusive)

SMILES: Cc1cc(-c2nnc(SCC(=O)Nc3ccccc3C(F)(F)F)o2)c(C)n1-c1ccccc1
- EC50 (Oxytocin receptor): > 29.9 µM (not active)
- EC50 (Vasopressin V1a receptor): > 29.9 µM (not active)

SMILES: COc1ccc2oc(-c3ccccc3)c(OC)c(=O)c2c1 [3,6-DIMETHOXYFLAVONE]
- AC50 (Cytochrome P450 2C19): 10 µM (inconclusive)
- AC50 (Cytochrome P450 2D6): 39.8 µM (inconclusive)
